Results as given in BindingDB's records for doi:10.1016/s0960-894x(01)00573-x (Pfizer, 2001).

Molecular target: T1, Caspase-1 (Homo sapiens, UniProt P29466)
T1 sequence (P29466 whole entry): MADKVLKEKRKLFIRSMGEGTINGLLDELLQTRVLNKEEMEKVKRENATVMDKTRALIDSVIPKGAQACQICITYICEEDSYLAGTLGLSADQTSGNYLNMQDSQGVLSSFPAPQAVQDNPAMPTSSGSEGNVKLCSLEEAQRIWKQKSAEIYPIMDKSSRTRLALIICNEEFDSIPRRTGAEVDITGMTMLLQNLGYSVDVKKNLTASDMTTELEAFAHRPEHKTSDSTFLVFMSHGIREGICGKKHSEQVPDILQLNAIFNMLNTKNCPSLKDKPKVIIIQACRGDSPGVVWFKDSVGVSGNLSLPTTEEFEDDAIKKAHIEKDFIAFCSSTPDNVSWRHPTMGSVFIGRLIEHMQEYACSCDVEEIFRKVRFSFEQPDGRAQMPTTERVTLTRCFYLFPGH
Assay: Caspase Inhibition Assay
Details: pH 7; 37 °C
Method: The substrate peptides terminating in AMC are processed by caspases with or without inhibitors, and the accumulation of AMC was assessed with a Cytofluor fluorescent plate reader at excitation and emission wavelengths of 380 and 460 nm. Compounds were tested, and full IC50 curves were run for all compounds expressing measurable inhibitory activity.

SMILES | Ki
O=C[C@H](CC(=O)O)NS(=O)(=O)c1ccccc1Oc1ccc(-c2ccc(C(=O)O)cc2)cc1 [4-[4-(2-{[(2S)-1-carboxy-3-oxopropan-2-yl]sulfamoyl}phenoxy)phenyl]benzoic acid] | 4.2 µM
Cc1cc(Oc2ccccc2S(=O)(=O)N[C@H](C=O)CC(=O)O)ccc1C(C)C [(3S)-3-({2-[3-methyl-4-(propan-2-yl)phenoxy]benzene}sulfonamido)-4-oxobutanoic acid] | 0.11 µM
CCC(C)c1ccc(Oc2ccccc2S(=O)(=O)N[C@H](C=O)CC(=O)O)cc1C (stereo partly drawn) [(3S)-3-({2-[4-(butan-2-yl)-3-methylphenoxy]benzene}sulfonamido)-4-oxobutanoic acid] | 0.1 µM
CCC(C)c1ccc(Oc2ccccc2S(=O)(=O)N[C@H](C=O)CC(=O)O)cc1 (stereo partly drawn) [(3S)-3-({2-[4-(butan-2-yl)phenoxy]benzene}sulfonamido)-4-oxobutanoic acid] | 0.49 µM
Cc1cccc(Oc2ccccc2S(=O)(=O)N[C@H](C=O)CC(=O)O)c1C [(3S)-3-{[2-(2,3-dimethylphenoxy)benzene]sulfonamido}-4-oxobutanoic acid] | 1 µM
Cc1ccccc1Oc1ccccc1S(=O)(=O)N[C@H](C=O)CC(=O)O [(3S)-3-{[2-(2-methylphenoxy)benzene]sulfonamido}-4-oxobutanoic acid] | 3 µM
Cc1cccc(Oc2ccccc2S(=O)(=O)N[C@H](C=O)CC(=O)O)c1 [(3S)-3-{[2-(3-methylphenoxy)benzene]sulfonamido}-4-oxobutanoic acid] | 0.43 µM
O=C[C@H](CC(=O)O)NS(=O)(=O)c1ccccc1Oc1ccc(C2CCCCC2)cc1 [(3S)-3-{[2-(4-cyclohexylphenoxy)benzene]sulfonamido}-4-oxobutanoic acid] | 0.9 µM
O=C[C@H](CC(=O)O)NS(=O)(=O)c1ccccc1Oc1ccc(C2CCCC2)cc1 [(3S)-3-{[2-(4-cyclopentylphenoxy)benzene]sulfonamido}-4-oxobutanoic acid] | 0.88 µM
Cc1ccc(Oc2ccccc2S(=O)(=O)N[C@H](C=O)CC(=O)O)cc1 [(3S)-3-{[2-(4-methylphenoxy)benzene]sulfonamido}-4-oxobutanoic acid] | 1.1 µM
CCC(CC)c1ccc(Oc2ccccc2S(=O)(=O)N[C@H](C=O)CC(=O)O)cc1 [(3S)-4-oxo-3-({2-[4-(pentan-3-yl)phenoxy]benzene}sulfonamido)butanoic acid] | 0.44 µM
CC(C)c1ccc(Oc2ccccc2S(=O)(=O)N[C@H](C=O)CC(=O)O)cc1 [(3S)-4-oxo-3-({2-[4-(propan-2-yl)phenoxy]benzene}sulfonamido)butanoic acid] | 0.62 µM
O=C[C@H](CC(=O)O)NS(=O)(=O)c1ccccc1Oc1ccccc1 [(3S)-4-oxo-3-[(2-phenoxybenzene)sulfonamido]butanoic acid] | 2.4 µM
Cc1cc(Oc2ccccc2S(=O)(=O)N[C@H](C=O)CC(=O)O)cc(C)c1C [(3S)-4-oxo-3-{[2-(3,4,5-trimethylphenoxy)benzene]sulfonamido}butanoic acid] | 0.45 µM
O=C[C@H](CC(=O)O)NS(=O)(=O)c1ccccc1Oc1ccc(-c2ccccc2)cc1 [(3S)-4-oxo-3-{[2-(4-phenylphenoxy)benzene]sulfonamido}butanoic acid] | 0.29 µM
